From patent US4482553A, “Benzothienylglycyl cephalosporin derivatives” (priority 1983, dated 1984)
In brackets after ≈: the same amount, converted by molar mass. Where two headings read alike, the source gives them in different places.

Legend:
Format in all cases: cell-based
Strep. A = experiment: standard in vitro agar dilution MIC (Table I), Strep. A; conditions: Table I, agar dilution, strain C203
Staph. epi [1] = experiment: standard in vitro agar dilution MIC (Table I), Staph. epi
Staph. epi [2] = experiment: Expanded Spectrum MIC (Table II), Staph. epi
Source text: (§1) The antibacterial activity of several compounds of the invention has been determined in standard in vitro agar dilution assays against a variety of gram positive and gram negative microorganisms. The following Tables present typical minimum inhibitory concentrations (MIC's) in μg/ml for several compounds of the invention when evaluated against the indicated microorganisms. MIC's for several known compounds are also presented for comparison.

Klebsiella = experiment: standard in vitro agar dilution MIC (Table I), Klebsiella
H. influ. [3] = experiment: Expanded Spectrum MIC (Table II), H. influ.
Source text: as §1

Strep. PN = experiment: standard in vitro agar dilution MIC (Table I), Strep. PN; conditions: strain PARK
H. influ. [4] = experiment: standard in vitro agar dilution MIC (Table I), H. influ.
Source text: as §1

Staph. aureus [5] = experiment: standard in vitro agar dilution MIC (Table I), Staph. aureus
Staph. aureus [6] = experiment: Expanded Spectrum MIC (Table II), Staph. aureus
Source text: as §1

E. coli = experiment: standard in vitro agar dilution MIC (Table I), E. coli; conditions: Escherichia coli
Strep. D = experiment: standard in vitro agar dilution MIC (Table I), Strep. D
[7] = Table I, agar dilution, strain 222, read-out: MIC
[8] = Staphylococcus aureus, strain V41, read-out: MIC
[9] = Staphylococcus aureus, strain X1.1, read-out: MIC
[10] = Staphylococcus aureus, strain X400, read-out: MIC

Structure (SMILES): CC1=C(C(=O)O)N2C(=O)C(NC(=O)C(N)c3cc4c(s3)CCCC4)C2SC1 [Ex. 5, D-7-[(4,5,6,7-tetrahydro-2-benzothienyl)glycylamido]-3-methyl-3-cephem-4-carboxylic acid]
- MIC (Strep. A): 0.06 µg/mL (≈ 0.147 µM)
- MIC (Staph. epi [1]; Table I, agar dilution, strain 222): 0.5 µg/mL (≈ 1.23 µM)
- MIC (Staph. epi [1]; Table I, agar dilution, strain EPI1): 2 µg/mL (≈ 4.91 µM)
- MIC (Staph. epi [2]; strain 219): 0.5 µg/mL (≈ 1.23 µM)
- MIC (Staph. epi [2]; strain 269): 2 µg/mL (≈ 4.91 µM)
- MIC (Staph. epi [2]; strain 270): 0.5 µg/mL (≈ 1.23 µM)
- MIC (Staph. epi [2]; strain 285): 1 µg/mL (≈ 2.45 µM)
- MIC (Staph. epi [2]; strain 286): 0.25 µg/mL (≈ 0.613 µM)
- MIC (Staph. epi [2]; strain EPI1): 4 µg/mL (≈ 9.82 µM)
- MIC (Klebsiella; Table I, agar dilution, strain X26): 2 µg/mL (≈ 4.91 µM)
- MIC (H. influ. [3]; strain 76): 8 µg/mL (≈ 19.6 µM)
- MIC (H. influ. [3]; strain 105): 4 µg/mL (≈ 9.82 µM)
- MIC (H. influ. [3]; strain 158): 4 µg/mL (≈ 9.82 µM)
- MIC (H. influ. [3]; strain 164): 4 µg/mL (≈ 9.82 µM)
- MIC (H. influ. [3]; strain 169): 16 µg/mL (≈ 39.3 µM)
- MIC (H. influ. [3]; strain 171): 16 µg/mL (≈ 39.3 µM)
- MIC (H. influ. [3]; strain 312): 4 µg/mL (≈ 9.82 µM)
- MIC (H. influ. [3]; strain 1683): 4 µg/mL (≈ 9.82 µM)
- MIC (H. influ. [3]; strain 1930): 16 µg/mL (≈ 39.3 µM)
- MIC (H. influ. [3]; strain 4842): 4 µg/mL (≈ 9.82 µM)
- MIC (H. influ. [3]; strain C.L.): 16 µg/mL (≈ 39.3 µM)
- MIC (H. influ. [3]; strain HESS): 16 µg/mL (≈ 39.3 µM)
- MIC (H. influ. [3]; strain M366): > 64 µg/mL
- MIC (H. influ. [3]; strain M370): 4 µg/mL (≈ 9.82 µM)
- MIC (H. influ. [3]; strain M371): 4 µg/mL (≈ 9.82 µM)
- MIC (H. influ. [3]; strain R465): 16 µg/mL (≈ 39.3 µM)
- MIC (H. influ. [3]; strain STEL): > 64 µg/mL
- MIC (Strep. PN): 0.25 µg/mL (≈ 0.613 µM)
- MIC (H. influ. [4]; strain 76): 4 µg/mL (≈ 9.82 µM)
- MIC (H. influ. [4]; strain C.L.): 16 µg/mL (≈ 39.3 µM)
- MIC (Staph. aureus [5]; strain S13E): 8 µg/mL (≈ 19.6 µM)
- MIC (Staph. aureus [5]; strain V41): 16 µg/mL (≈ 39.3 µM)
- MIC (Staph. aureus [5]; strain X1.1): 0.25 µg/mL (≈ 0.613 µM)
- MIC (Staph. aureus [5]; strain X400): 64 µg/mL (≈ 157 µM)
- MIC (Staph. aureus [6]; strain 239): 0.5 µg/mL (≈ 1.23 µM)
- MIC (Staph. aureus [6]; strain S224): 0.5 µg/mL (≈ 1.23 µM)
- MIC (Staph. aureus [6]; strain S225): 0.5 µg/mL (≈ 1.23 µM)
- MIC (Staph. aureus [6]; strain S226): 0.5 µg/mL (≈ 1.23 µM)
- MIC (Staph. aureus [6]; strain S227): 0.5 µg/mL (≈ 1.23 µM)
- MIC (Staph. aureus [6]; strain S228): 0.5 µg/mL (≈ 1.23 µM)
- MIC (Staph. aureus [6]; strain S229): 1 µg/mL (≈ 2.45 µM)
- MIC (Staph. aureus [6]; strain S230): 0.5 µg/mL (≈ 1.23 µM)
- MIC (Staph. aureus [6]; strain S231): 0.25 µg/mL (≈ 0.613 µM)
- MIC (Staph. aureus [6]; strain S234): 1 µg/mL (≈ 2.45 µM)
- MIC (Staph. aureus [6]; strain S237): 0.5 µg/mL (≈ 1.23 µM)
- MIC (Staph. aureus [6]; strain S238): 1 µg/mL (≈ 2.45 µM)

Structure (SMILES): CC1=C(C(=O)O)N2C(=O)C(NC(=O)[C@@H](N)c3cc4c(Cl)cccc4s3)C2SC1 (stereo partly drawn) [Ex. 7B, L-7-(4-chloro-2-benzothienylglycylamido)-3-methyl-3-cephem-4-carboxylic acid]
- MIC (Strep. A; read-out: MIC): 0.5 µg/mL (≈ 1.14 µM)
- MIC (Staph. epi [1]; [7]): 4 µg/mL (≈ 9.13 µM)
- MIC (Staph. epi [1]; Table I, agar dilution, strain EPI1, read-out: MIC): 8 µg/mL (≈ 18.3 µM)
- MIC (Klebsiella; Klebsiella, Table I, agar dilution, strain KAE, read-out: MIC): > 128 µg/mL
- MIC (Klebsiella; Klebsiella, Table I, agar dilution, strain X26, read-out: MIC): 32 µg/mL (≈ 73.1 µM)
- MIC (Klebsiella; Klebsiella, Table I, agar dilution, strain X68, read-out: MIC): > 128 µg/mL
- MIC (Strep. PN; read-out: MIC): 2 µg/mL (≈ 4.57 µM)
- MIC (H. influ. [4]; strain 76, read-out: MIC): 4 µg/mL (≈ 9.13 µM)
- MIC (H. influ. [4]; strain C.L., read-out: MIC): 64 µg/mL (≈ 146 µM)
- MIC (E. coli; strain EC14): > 128 µg/mL
- MIC (E. coli; strain N10): > 128 µg/mL
- MIC (E. coli; strain TEM): > 128 µg/mL
- MIC (Staph. aureus [5]; [8]): 16 µg/mL (≈ 36.5 µM)
- MIC (Staph. aureus [5]; [9]): 2 µg/mL (≈ 4.57 µM)
- MIC (Staph. aureus [5]; [10]): 128 µg/mL (≈ 292 µM)
- MIC (Strep. D; strain 2041, read-out: MIC): 128 µg/mL (≈ 292 µM)
- MIC (Strep. D; strain X66, read-out: MIC): > 128 µg/mL

Structure (SMILES): COc1c([C@H](N)C(=O)NC2C(=O)N3C(C(=O)O)=C(C)CSC23)sc2ccccc12 (stereo partly drawn) [Ex. 9B, L-7-(3-methoxy-2-benzothienylglycylamido)-3-methyl-3-cephem-4-carboxylic acid]
- MIC (Strep. A; read-out: MIC): 4 µg/mL (≈ 9.23 µM)
- MIC (Staph. epi [1]): 128 µg/mL (≈ 295 µM)
- MIC (Staph. epi [1]; [7]): 32 µg/mL (≈ 73.8 µM)
- MIC (Klebsiella; Klebsiella): > 128 µg/mL
- MIC (Klebsiella; Table I, agar dilution, strain KAE): > 128 µg/mL
- MIC (Klebsiella; Table I, agar dilution, strain X68): > 128 µg/mL
- MIC (Strep. PN; read-out: MIC): 32 µg/mL (≈ 73.8 µM)
- MIC (H. influ. [4]; strain 76, read-out: MIC): 64 µg/mL (≈ 148 µM)
- MIC (H. influ. [4]; strain C.L.): > 128 µg/mL
- MIC (E. coli; strain EC14): > 128 µg/mL
- MIC (E. coli; strain N10): > 128 µg/mL
- MIC (E. coli; strain TEM): > 128 µg/mL
- MIC (Staph. aureus [5]; Staphylococcus aureus, strain S13E): > 128 µg/mL
- MIC (Staph. aureus [5]; [8]): > 128 µg/mL
- MIC (Staph. aureus [5]; [9]): 16 µg/mL (≈ 36.9 µM)
- MIC (Staph. aureus [5]; [10]): > 128 µg/mL
- MIC (Strep. D; strain 2041): > 128 µg/mL
- MIC (Strep. D; strain X66): > 128 µg/mL
